Source: US12358859B2, “Series of compounds for treatment of skin diseases and other conditions” (Unigen, Inc., priority 2018, dated 2025)
Where two headings read alike, the source gives them in different places.

Tests used:
COX-1 = biological target: T1, COX-1 (Ovis aries, UniProt P05979); experiment: COX-1 enzymatic inhibition assay; type: biochemical; conditions: for IC50: read-out: Anti-inflammatory (IC50) COX-1
T1 construct: purchased Cayman Chemical 701050
T1 sequence (P05979 25-600): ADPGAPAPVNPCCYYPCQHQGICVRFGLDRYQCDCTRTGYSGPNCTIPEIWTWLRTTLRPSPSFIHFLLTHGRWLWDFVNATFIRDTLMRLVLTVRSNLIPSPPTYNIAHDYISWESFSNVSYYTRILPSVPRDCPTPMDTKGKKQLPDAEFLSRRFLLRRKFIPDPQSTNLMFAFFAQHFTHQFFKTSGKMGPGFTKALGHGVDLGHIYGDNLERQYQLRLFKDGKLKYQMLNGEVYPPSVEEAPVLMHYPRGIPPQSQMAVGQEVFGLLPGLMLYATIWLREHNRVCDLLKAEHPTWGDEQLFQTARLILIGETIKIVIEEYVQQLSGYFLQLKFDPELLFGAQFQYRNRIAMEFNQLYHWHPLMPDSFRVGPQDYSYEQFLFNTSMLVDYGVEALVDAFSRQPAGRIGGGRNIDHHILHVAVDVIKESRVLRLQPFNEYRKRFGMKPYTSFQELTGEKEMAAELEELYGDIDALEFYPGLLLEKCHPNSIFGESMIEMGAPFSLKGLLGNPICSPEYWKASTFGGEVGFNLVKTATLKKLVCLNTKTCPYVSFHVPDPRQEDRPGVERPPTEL
Experimental: In order to screen for compounds that inhibited COX-1 and Cox-2 activity, enzymatic inhibition assay kits were purchased from Cayman Chemical (cat #701050). Briefly, the compound being examined was treated against a fixed amount of COX-1 and COX-2 enzymes. A cleavable, peroxide chromophore was included in the assay to visualize the peroxidase activity of each enzyme in presence of arachidonic acid as […]. Typically, assays were performed in 96-well format. Each inhibitor, taken from a 1 M stock solution in 100% DMSO, was tested in duplicate at room temperature using the following range of concentrations: 1.9, 3.9, 7.8, 15.6, 31.2, 62.5, 125, 250, 500, and 1000 μM. To each well, 150 μL of Assay Buffer was added along with 10 μL of Hemin, 10 μL of inhibitor diluted in DMSO and 10 μL of either COX-1 or COX-2 enzyme. The compounds were incubated for 5 minutes at room temperature, followed by the addition of 20 μL of Colormietric Substrate solution and 20 μL of arachidonic acid solution to initiate the reaction. The plate was mixed and incubated for 2 minutes before reading the absorbance at 590 nm. The inhibitor concentration vs. % of inhibition was plotted and the IC50 determined.

[1] = test system: murine melanoma cells B16-F1; experiment: Cell viability, tetrazolium reduction assay; type: cell-based
Experimental: (§1) All test compounds were initially dissolved in 100% DMSO at a concentration of 400 mM. Then, 6 μL of 400 mM test compounds were added to 1.2 mL of the cell growth media giving a final concentration of 2 mM for the test compound and concentration of 0.5% for DMSO. The compounds were centrifuged for 1 h at 20,000×g. Supernatants (1 mL) were collected and filtered through sterile 0.2 μm filters. The compounds were serially diluted in two-fold increments in the sterile cell growth media supplemented with 0.5% DMSO, thus keeping the concentration of DMSO constant for all samples. These serially diluted compounds were subsequently used as two-fold concentrated stock solutions in the melanin production and cell viability assays. Equal volumes of 2× compounds were mixed with media containing 2 nM α-MSH to give a final concentration of 1 nM α-MSH, 0.5% DMSO, and 1× concentration of test compounds.
Viability of cells was measured using standard tetrazolium reduction assay based on redox potential of live cells. Cells were seeded in a clear-bottom 96-well plate in RPMI 1640 media with Glutamax (Fisher Scientific, cat #61870036) at a density of 5,000 cells/well. Cells were treated with test compounds dissolved in 100 μL RPMI 1640 media and incubated for 48 hours at 37° C. in a humidified atmosphere of 95% air and 5% CO2.
After incubation, 20 μL of Aqueous One Solution were added to each well and the plate was returned to the incubator for 30 minutes. Conversion of tetrazolium was monitored by measuring absorbance of cell wells at 492 nm using a TECAN Genios plate reader.
(§2) More than 90% percent of the melanin produced by cultured melanoma cells is found in extra-cellular media. Therefore, at the end of the experiment melanin-containing media was collected and relative amounts of melanin were determined by absorption at 492 nm. Viability of cells was determined by a commonly used colorimetric procedure that is based on conversion of the tetrazolium compounds to colored formazan products (using Promega's CellTiter96 AqueousOne assay). Dehydrogenase enzymes in metabolically active cells accomplish this conversion, and the amount of formazan product is directly proportional to the number of living cells in culture. Mean (n=2) absorption of wells containing no cells was subtracted as blanks. The results were computed as percent of wells that contained the cells but no test compounds.

[2] = test system: murine melanoma cells B16-F1; experiment: Melanin production by murine melanoma cells B16-F1; type: cell-based; conditions: Mus musculus, B16-F1, 1 nM α-MSH, 48 hours
Experimental: Selected compounds were then tested for the ability to suppress melanin production by the murine melanoma cells B16-F1 as detailed below.
Murine melanoma cells B16-F1 were purchased from the ATCC (Cat #CRL-6323). Cell Titer96 AqueousOne Solution was purchased from Promega (Cat #G3582). 0.2 μm pore size, low protein binding filters were purchased from PALL Life Sciences. (Cat #PN4454).
Alpha-MSH was purchased from the Sigma Aldrich (Cat #M4135-1MG). All tissue culture reagents were purchased from VWR (phenol-red-free DMEM, cat #12001-630, L-glutamine, cat #12001-698) and Fisher Scientific (Trypsin-EDTA, cat #25-200-056).
The B16-F1 cells were maintained in cell growth media (DMEM/High Glucose supplemented with glutamine, 10% fetal bovine serum, 50 units/ml penicillin, and 50 units/mL of streptomycin) at 37° C. in a humidified atmosphere of 95% air and 5% CO2.
as §1
B16-F1 cells were seeded into the wells of clear-bottom 24-well plates at 50,000 cells per well, in 0.5 mL of cell growth media. On the following day, 0.5 mL of freshly prepared test compounds containing α-MSH were added to the wells. The cells were maintained at 37° C. in a humidified atmosphere of 95% air and 5% CO2 for 48 hours. At the end of the incubation period, melanin-containing conditioned media was removed from the cells and transferred to another plate. To measure melanin content the light absorbance of conditioned media was taken at 492 nm using a TECAN Genios plate reader.
as §2

[3] = FIGS. 2-8, read-out: IC50, inhibition in the production of melanin
[4] = Tables 1-3, read-out: MELANIN PRODUCTION

| Compound | IC50 (COX-1) | CELL VIABILITY ([1]; 48 hours, Tables 1-3) | LD50, cell viability ([1]; mouse, 48 h) | IC50 [2, 3] | IC50 [2, 4] | CELL VIABILITY ([1]; mouse, 48 h) | Anti-inflammatory (IC50) COX-1 (COX-1) |
| --- | --- | --- | --- | --- | --- | --- | --- |
| CC(C)=CCCC(C)=Cc1ccc(O)cc1 (mixture of isomers) [Compound 1, (E/Z)-4-(2,6-dimethylhepta-1,5-dienyl)phenol] | 122 µM | 269 µM | 269 µM | 158 µM | 158 µM | – | – |
| CC(C)=CCC/C(C)=C/c1cc(O)cc(O)c1 [Compound 4, (E/Z)-5-(2,6-dimethylhepta-1,5-dienyl)benzene-1,3-diol] | 64 µM | – | – | 72 µM | 72 µM | 127 µM | – |
| CC(C)=CCCC(C)/C=C/c1ccc(O)cc1 (centres unmarked) [Compound 5, (E)-4-(3,7-dimethylocta-1,6-dienyl)phenol] | – | – | – | – | 72 µM | 50 µM | No Inhibition |
| CC(C)=CCCC(C)/C=C/c1ccc(O)cc1O (centres unmarked) [Compound 6, (E)-4-(3,7-dimethylocta-1,6-dienyl) benzene-1,3-diol] | 74 µM | 233 µM | 233 µM | 9 µM | 9 µM | – | – |
| CC(C)=CCCC(C)/C=C/c1cc(O)cc(O)c1 (centres unmarked) [Compound 7, (E)-5-(3,7-dimethylocta-1,6-dienyl) benzene-1,3-diol] | 25 µM | 152 µM | 152 µM | 97 µM | 97 µM | – | – |
| CC(C)=CCCC(C)C/C=C\c1cc(O)cc(O)c1 (centres unmarked) [Compound 15, (Z)-5-(4,8-dimethylnona-1,7-dienyl) benzene-1,3-diol] | 122 µM | – | – | 74 µM | 158 µM | 269 µM | – |
